Results on one cell line are retold here after the supplement of paper PMC10307832.

Test in all cases: relative viability (nuclei count vs DMSO), 5 days (fraction); higher = more cells survive
Compound in the experiment “Bortezomib + AZD7762”: CC(C)C[C@H](NC(=O)[C@H](Cc1ccccc1)NC(=O)c1cnccn1)B(O)O [Bortezomib] + NC(=O)Nc1cc(-c2cccc(F)c2)sc1C(=O)N[C@H]1CCCNC1 [AZD7762] (partner 0.2 µM)
Put shortly: (§1)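 Five library-drug doses in √10 steps were combined with a fixed anchor-drug dose, or a single drug was given alone, by pin tool to lung cancer cell lines in 1536-well plates the day after seeding. Nuclei were stained and counted after 5 days. Relative viability is the nuclei count in treated wells over that in vehicle wells, taken as the median of duplicate plates.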

Compound in experiment [1]: CC1=CC(=NN1)NC2=CC(=NC(=N2)/C=C/C3=CC=CC=C3)N4CCN(CC4)C + COc1cc2c(Oc3ccc(NC(=O)C4(C(=O)Nc5ccc(F)cc5)CC4)cc3F)ccnc2cc1OCCCN1CCOCC1 [Foretinib] (partner 0.25 µM)
Put shortly:
as §1

Compound in experiment [2]: CC1=CC(=NN1)NC2=CC(=NC(=N2)/C=C/C3=CC=CC=C3)N4CCN(CC4)C + N=C(N)NC(=N)NCCc1ccccc1 [Phenformin] (partner 250 µM)
The method, boiled down: as §1

Compound in the experiment “Obatoclax + Foretinib”: COC1=CC(c2cc3ccccc3[nH]2)=N/C1=C\c1[nH]c(C)cc1C [Obatoclax] + COc1cc2c(Oc3ccc(NC(=O)C4(C(=O)Nc5ccc(F)cc5)CC4)cc3F)ccnc2cc1OCCCN1CCOCC1 [Foretinib] (partner 0.25 µM)
The method, boiled down:
as §1

Take NCI-H650: the relative viability in the experiment with Bortezomib + AZD7762 (first compound 0.0002 µM) is 0.949; in the experiment with Bortezomib + AZD7762 (first compound 0.000632 µM), 1.08; with Bortezomib + AZD7762 (first compound 0.002 µM) it was 0.95; with Bortezomib + AZD7762 (first compound 0.006325 µM), 0.942; in the experiment with Bortezomib + AZD7762 (first compound 0.02 µM), 0.289; in experiment [1] (first compound 0.253 µM), 1.14. In addition, the relative viability in experiment [1] (first compound 0.8 µM) turned out to be 1.01; in experiment [1] (first compound 2.53 µM), 0.923; in experiment [1] (first compound 8 µM), 0.255; in experiment [2] (first compound 0.253 µM) it was 0.521; in experiment [2] (first compound 0.8 µM), 0.483; in experiment [2] (first compound 2.53 µM), 0.371. Further, the relative viability in experiment [2] (first compound 8 µM) came out at 0.181; with Obatoclax + Foretinib (first compound 0.01 µM), 1.01; with Obatoclax + Foretinib (first compound 0.03162 µM), 0.986; in the experiment with Obatoclax + Foretinib (first compound 0.3162 µM), 0.717; in the experiment with Obatoclax + Foretinib (first compound 1 µM), 0.38.
